Earlier results in patent US6777448B2, “Veterinary compositions for the treatment of parasitic diseases” (New Pharma Research Sweden AB, priority 2000, dated 2004).
Like-named read-outs stand apart in the source and are kept apart here.

Assays:
[1] = given orally
[2] = delivered via injection as such
[3] = bloodstream of animals

SMILES: O=C(Nc1ccc(Oc2ccc(Cl)cc2)c(Cl)c1)c1cc(I)cc(I)c1O [rafoxanide, 3′-chloro-4′-(4-chlorophenoxy)-3,5-di-iodosalicylanilide]
- absorption ([1]; non-gastric species): 10%
- absorption ([1]; ruminants): up to 50%
- solubility (in a 1% surface-active agent composition): 0.14%
- solubility in water (water at 25° C.): approximately 0.005 % weight/volume
- irritation on injection [2]: irritating
- binding to protein in the blood [3]: bind strongly to protein in the blood
- persistence in the bloodstream [3]: persist in the bloodstream of animals
